Several values for one entry are separate records, joined by “and”; a condition that tells them apart may be missing. Equal entries are not always repeated. Entries after “also recorded” stand apart in the source; their conditions may differ.
What was measured:
[1] = system: 1:1 mix of normal MNC and CML blast crisis cells; assay: Morphology (Giemsa staining) of cells from residual colonies; format: cell-based, human
Excerpt: Normal bone marrow mononuclear cells (MNC) were obtained by aspiration from consenting volunteers and enriched for hematopoietic progenitors as previously reported by numerous investigators (Zamecnick et al., Proc. Natl. Acad. Sci. U.S.A. 83, 4143-4147 (1986); Caracciolo et al., J. Clin. Invest. 85, 55-61 (1990)). In brief, marrow cells were subjected to Ficoll-Hypaque density gradient sedimentation and then depleted of adherent monocyte-macrophage and T-lymphocytes by adherence to plastic Petri dishes and rosetting with neuraminidase-treated sheep red blood cells, respectively. Philadelphia chromosome-positive blast cells were isolated by Ficoll-Hypaque density gradient sedimentation from a CML patient in blast crisis (L-6 type junction). […] The residual non-blast cells had the morphological appearance of small lymphocytes. 25,000 MNC and 25,000 CML blast cells were combined and incubated with bcr-abl breakpoint-Specific antisense oligomer (SEQ ID NO:3) (40 μg/ml at h 0; 20 μg/ml 18 hours later) or with a 4 nucleotide mismatch bcr-abl antisense oligomer (SEQ ID NO:2) (40 μg/ml at 0 h; 20 μg/ml 18 hours later) or left untreated. […] At the end of the incubation period colonies were counted. […]

BV173 cells [2] = assay: Clonogenic assay of tissues of leukemic SCID mice; format: in vivo, SCID mice (human leukemic cells)
Procedure: A second assay for leukemic disease comprised a clonogenic assay in semisolid medium. […] By contrast, BV173 cells formed numerous, rapidly growing colonies. To rule out the possibility that the presence of BV173 cells permitted the growth of murine progenitors, mixing experiments were carried out.
(§1) To determine whether synthetic phosphorothioate oligodeoxynucleotides targeted against the bcr-abl junction of […] cells would modify the disease process in SCID mice. SCID mice were injected with 10^6 BV173 cells. The mice then received 1 mg of sense (ATCAATAAGG AAGCCCTTCAGCG, SEQ ID NO:34) or antisense ([…] ATTGAT, SEQ ID NO:29) b2/a2 bcr-abl phosphorothioate oligodeoxynucleotides (pyrogen leven <1 Eu/mg; 0.2 ml in Iscove modified Dulbecco medium in 5-10 seconds) intravenously for each of 9 consecutive days, beginning either 7 or 21 days after introducing 10^6 BV173 cells. Control mice received the diluent (iscove's modified Dulbecco medium) only. These time points approximate distinct disease stages in humans.
10^5 cells were plated in duplicate in 35×10 mm tissue culture dishes (Nunc, Inc., Naperville, Ill.) in HCC-4230 medium (Terry Fox Lab., Vancouver, Canada) supplemented with 2.5 mM L-glutamine, and allowed to grow for 12 days. Plates were scanned with an inverted microscope and total colony number was determined. The results are shown in FIG. 9 (C, untreated mouse; S, sense-treated mouse, AS, antisense-treated mouse).

BV173 cells [3] = assay: Macroscopic examination / disease state of leukemic SCID mice; format: in vivo, SCID mice (human leukemic cells)
Procedure: Injection of the mice with BV173 cells induces a disease closely resembling that in human leukemia patients.
as §1

[4] = system: bcr-abl (b2/a2) transcripts; assay: RT-PCR of bcr-abl transcripts in tissues of leukemic SCID mice; format: in vivo, SCID mice (human leukemic cells)
Procedure: According to a third assay, the extent of leukemic disease was assessed by chain RT-PCR to monitor the expression of b2/a2 transcripts (assay sensitivity=[…]) in total RNA isolated from bone marrow cells, splenocytes, peripheral blood leukocytes, liver, lung and brain tissues. Depending on the number of BV173 cells injected, various numbers of leukemic cells were detected by clonogenic assay and RT-PCR in murine tissues, 3 and 6 weeks after injection. A few days before the expected death of leukemic SCID mice, approximately 80, 65, and 10% cALLA-positive cells were detected in bone marrow cells, splenocytes and peripheral blood leukocytes, respectively.
as §1
At 7 (+7) and 21 (+21) days after injecting SCID mice with 10^6 BV173 cells, single cell suspensions were prepared from various tissues. After lysing red cells with 0.83% NH4 Cl buffered with 0.17 mM Tris-HCl, pH 7.4, total RNA was extracted as described (Chomczynski and Sacchi, Anal. Biochem. 162, 156 (1987)) and the suspension was divided into two equal aliquots. Bcr-abl and β-actin transcripts were reverse-transcribed and amplified with specific primers and Taq polymerase as described by Szczylik et al., Science 253, 562 (1991). Amplification products were separated on a 2% agarose gel, transferred to a nitrocellulose filter and hybridized with a synthetic 40-base c-abl fragment or 20-base β-actinfragment end-labeled with [γ^32 -P]-ATP and polynucleotide kinase. The c-abl probe recognizes an amplified 257-bp sequence containing the bcr-abl junction: the β-actin probe recognizes a 209-bp fragment, contained within the 5' and 3' β-actin primers (Tokunaga et al., Nucleic Acids Res. 14, 2829 (1986)).

[5] = 1 mg/day i.v. x9 from day +7, killed 26 days after last treatment (6 weeks)
[6] = 1 mg/mouse/day x9 from day +21, 26 days after treatment (8 weeks)

| Substance | morphology of cells isolated from residual colonies [1] | leukemic colonies, bone marrow and spleen (BV173 cells [2]; [5]) | leukemic colonies, peripheral blood leukocytes (BV173 cells [2]; [5]) | leukemic colonies, bone marrow (BV173 cells [2]; 1 mg/mouse/day i.v. x9 from day +7, killed 12 days after last treatment (4 weeks), untreated 353±52) [colonies] | leukemic colonies, peripheral blood mononuclear cells (BV173 cells [2]; 1 mg/mouse/day x9 from day +21, 12 days after last treatment (6 weeks), untreated 11.0±8.5) [colonies] | leukemic colonies, spleen (BV173 cells [2]; 1 mg/mouse/day x9 from day +21, 12 days after last treatment (6 weeks), untreated 80.5±12.0) [colonies] | leukemic colonies, bone marrow (BV173 cells [2]; 1 mg/mouse/day x9 from day +21, 12 days after last treatment (6 weeks), untreated 575.5±83.8) [colonies] | leukemic colonies, bone marrow (BV173 cells [2]; [6]) [colonies] | leukemic colonies, peripheral blood (BV173 cells [2]; [6]) | leukemic colonies, spleen (BV173 cells [2]; [6]) [colonies] | evidence of active leukemic disease process (BV173 cells [3]; 1 mg/mouse x9 i.v. from day 7 or 21) | macroscopic examination: leukemic nodules in liver and kidneys (BV173 cells [3]; from day +7, 26 days after last treatment (6 weeks)) | splenomegaly and leukemic metastases in the liver (BV173 cells [3]; from day +21, 12 days after last treatment (6 weeks)) | macroscopic examination: metastases / leukemic nodules in liver, kidneys, splenomegaly (BV173 cells [3]; from day +21, 26 days after treatment (8 weeks), FIG. 11) | bcr-abl transcripts in tissues ([4]; from day +7, 12 days after last treatment (4 weeks), blood, spleen, bone marrow, liver, lung, brain) | bcr-abl (b2/a2) transcripts in tissues ([4]; from day +7, 26 days after last treatment (6 weeks), blood leukocytes, spleen, bone marrow, liver, lung, brain) | bcr-abl transcripts in tissues ([4]; from day +21, 12 days after last treatment (6 weeks), blood, spleen, bone marrow, liver, lungs, brain) | bcr-abl transcripts in tissues ([4]; from day +21, 26 days after treatment (8 weeks)) |
| --- | --- | --- | --- | --- | --- | --- | --- | --- | --- | --- | --- | --- | --- | --- | --- | --- | --- | --- |
| SEQ ID NO:3: synthetic 18-mer GAAGGGCTTC TTCCTTAT specific for the 18-nucleotide target sequence of the L-6 bcr-abl junction (antisense GAAGGGCTTCTTCCTTAT; chemistry not given here) | largely consisted of differentiating elements |  |  |  |  |  |  |  |  |  |  |  |  |  |  |  |  |  |
| SEQ ID NO:34: phosphorothioate sense sequence ATCAATAAGGAAGCCCTTCAGCG (23-mer b2a2 sense) (sense ATCAATAAGGAAGCCCTTCAGCG; all phosphorothioate, sugars by position and methylation of C not given here) |  | numerous leukemic colonies | A few colonies | 380±25 | 14.5±4.9 | 116.0±29.7 | 668.5±59.1 | 839.5±41.7 | 51.0±41.7 colonies and 51.0±14.1 colonies | 548.5±128.0 | macroscopic, microscopic and molecular evidence of an active leukemic disease process | in addition to spleen enlargement, the presence of distinct leukemic nodules in liver and kidneys | splenomegaly and leukemic metastases in the liver were detected | numerous metastases in the liver (FIG. 11A), a few in the kidneys, and splenomegaly; also recorded: Numerous distinct leukemic nodules are visible in the liver | bcr-abl transcripts in each of the tissues analyzed except brain | readily detected in each tissue | Bcr-abl transcripts were detected | readily detectable |

Source: patent publication US5652222A, “Selective inhibition of leukemic cell proliferation by bcr-abl antisense oligonucleotides” (Temple University-of The Commonwealth System of Higher …, priority 1993, dated 1997)
